Reference: patent US20260274836A1, “NOVEL HEPATOSELECTIVE POLYADENYLATING POLYMERASES INHIBITORS AND THEIR METHOD OF USE” (Baruch S. Blumberg Institute, priority 2022, published 2026)
Values joined by “and” are separate entries in the source; they are usually repeats but may differ in a detail not shown here. Equal values may be shown once.

What was measured:
[1] = Pharmacokinetics after intravenous (IV) administration, plasma; assay type: in vivo, CD1 mice; design: AUClast/D: unit not given here; conditions: 3 mg/kg IV; for Concentration (ng/mL): plasma
Description: Protocol for pharmacokinetic and tissue distribution studies. The pharmacokinetics of the compounds was studied in CD1 mice after intravenous (IV) and oral gavage (PO) administration. Mouse PK studies was conducted at 3 mg/kg (IV) and 8 mg/kg (PO). Plasma samples obtained from dosed animals, at ten time points, including 5, 15 and 30 minutes and 1, 1.5, 2, 4, 6, 8 and 24 hr post-dose for processing to plasma, were prepared for analysis by means of a single step protein precipitation technique, by adding 200 μL of acetonitrile containing an IS mixture (labetalol, imipramine and diclofenac) to 50 μL aliquots of individual subject samples. Samples were mixed by vortex for homogeneity and then subjected to centrifugation at 4000 rpm for 10 min. The supernatant (200 μL) was collected and injected into the LC-MS/MS for analysis. Pharmacokinetic parameters will be calculated using established non-compartmental methods. The liver distribution of the compounds was studied in the PO group and liver tissues were collected at each time point after PO administration. Accurately weighed whole liver tissues were collected in a 50 mL tube, and 3 volumes per weight of water will be added. Tissue samples were homogenized and 50 μL of the homogenates will be processed along with plasma samples as described above.

[2] = test system: 18f-NLuc reporter virus (HM175/18f HAV); experiment: Antiviral activity against human hepatitis A virus, 18f-NLuc reporter virus in Huh-7 cells; assay type: cell-based, Human Hepatitis A Virus (Hepatovirus A); conditions: Hepatovirus A, Huh-7, 48 h, Huh-7 cells, 18f-NLuc virus, 48 hrs
Description: Assay for Antiviral Activity Against Human Hepatitis A Virus (Hepatovirus A).
(§1) Assays for the anti-HAV activity of the hepatoselective DHQ compounds were carried out in Huh-7 human hepatoma cells using the 18f-NLuc reporter virus, which expresses nanoluciferase (NLuc) from sequence inserted into the polyprotein coding region of the HM175/18f HAV genome between the VP1pX and 2B coding sequences (Yamane et al., 2019). The method was modified minimally from that described by Misumi et al. for iminosugar compounds (Misumi et al., 2021). Cells (approximately […]) were plated in wells of a 96-well plate with Dulbecco's modified Eagle medium (DMEM) and 10% fetal bovine serum. The cells were inoculated 24 hrs later with 18f-NLuc virus (approximately 10^6-10^7 genome equivalents) in medium containing increasing concentrations of the compounds of interest. The cells were re-incubated for 48 hrs at 37° C. in a 5% CO2 environment, then lysed in 1× passive lysis buffer (Promega) for 15 min at room temperature. Cell lysates were transferred to an opaque white 96-well plate (Corning, 3912) and NLuc assay carried out using the NLuc GLOW Assay kit (Nanolight Technology). Luminescence was measured using a Biotek Synergy II multi-mode plate reader (BioTek Instruments). The percent inhibition of replication was calculated by determining the reduction in NLuc activity from that expressed by infected cells incubated in parallel in the absence of compound, and 50% inhibitory endpoints estimated by fitting the data to a four parameter variable slope logistic curve using Prism 9 for Mac OS software (GraphPad). Cell toxicity of the compounds was assessed using the WST-1 Cell Proliferation Reagent (Sigma-Aldrich) at the end of the treatment period in parallel cultures of uninfected cells, with WST-1 reagent added to cultures for 1 hr prior to harvest and O.D. reading.
as §1, with “Additional exemplary compounds of the present invention are evaluated for anti-HAV activity in accordance with certain assays described hereinabove. As discussed above, assays” for “Assays”, “10^6-107” for “10^6-10^7”

COc1cc2c(cc1OCCCCCCC(=O)O)C[C@@H](C(C)C)n1cc(C(=O)O)c(=O)cc1-2 [Example 6, (S)-9-((6-carboxyhexyl)oxy)-6-isopropyl-10-methoxy-2-oxo-6,7-dihydro-2H-pyrido[2,1-a]isoquinoline-3-carboxylic acid]
AUC—% Extrap —obs ([1]; individual mice): 1.59% and 1.03% and 0.662% | Cl_obs ([1]; individual mice): 187 mL/min/kg and 166 mL/min/kg and 242 mL/min/kg | AUClast/D ([1]; mean): 85.1 | AUC—% Extrap —obs ([1]; mean): 1.09% | C0 ([1]; mean): 2568 ng/mL | Cl_obs ([1]; mean): 198 mL/min/kg | Concentration (ng/mL) ([1]; 4 h, individual mice): BLOQ | Concentration (ng/mL) ([1]; 8 h, individual mice): BLOQ | Concentration (ng/mL) ([1]; 24 h, individual mice): BLOQ | EC50 [2]: 278 nM
